Reference: PMC3983396 (Journal of medicinal chemistry, 2014)
Each block holds one compound with its values, some of them ahead of it.

Tests used:
[1] = test system: CD-1 female mice; details: CD-1, mouse, in vivo
[2] = test system: MDA-MB-231 tumor xenograft; assay: Orthotopic nude mouse assay; type: in vivo
[3] = test system: AKT phosphorylation in MDA-MB-231 cells; assay: AKT phosphorylation; type: cell-based, human; details: MDA-MB-231, increasing concentrations, 24 h
[4] = test system: human tumor cell lines; assay: Growth arrest of a panel of human tumor cell lines; type: cell-based; details: read-out: GI50 values, growth arrest of most tumor cell lines
[5] = test system: MCF-7 and MDA-MB-231 cells; assay: Flow cytometry after prolonged treatment; type: cell-based, human; details: greater than 48 h
[6] = test system: tumor cells; assay: Induction of apoptosis of tumor cells; type: cell-based
[7] = test system: CDKs 1, 2, 5, 8 and 9; assay: In vitro kinase assay, other CDKs; type: biochemical; details: data not shown
[8] = test system: PARP cleavage in MCF-7 and MDA-MB-231 cells; assay: PARP cleavage, Western blot; type: cell-based, human; details: 24 h, 1 μM
[9] = Water solubility of salts; type: physicochemical; details: compared to the salts of monocyclic amines (7m and 7s)
[10] = test system: CDK4; details: read-out: IC50 CDK4; cited from earlier work
[11] = test system: CDK6; details: read-out: IC50 CDK6; cited from earlier work

SMILES: CN1CCN(c2ccc(Nc3ncc4cc(C#N)c(=O)n(C5CCCC5)c4n3)cc2)CC1 [7x, 8-Cyclopentyl-2-[4-(4-methyl-piperazin-1-yl)-phenylamino]-7-oxo-7,8-dihydro-pyrido[2,3-d]pyrimidine-6-carbonitrile]
mice surviving more than 10 days after injection [1]: 100%
tumor growth ([2]; 50 mg/kg Q2D IP, 21 day period): dose-dependent inhibition of tumor growth
signs of toxicity in treated groups ([2]; 50 mg/kg Q2D IP, body weights): No overt signs of toxicity
tumor weight at the end-point of the study ([2]; data not shown): decrease in tumor weight
phosphorylation of AKT (Ser473) [3]: inhibits the phosphorylation of AKT
GI50 [4]: 25 to 2000 nM
sub-G1 population (apoptosis) [5]: appearance of a sub-G1 population
concentration inducing apoptosis of tumor cells [6]: 30 to 100 nM
inhibitory activity against CDKs 1, 2, 5, 8 and 9 [7]: little inhibitory activity
PARP cleavage (~89 kDa cleaved polypeptide) [8]: dose-dependent accumulation of the ~89 kDa cleaved PARP polypeptide

SMILES: N#Cc1cc2cnc(Nc3ccc(N4CCOCC4)cn3)nc2n(C2CCCC2)c1=O [7u, 8-Cyclopentyl-2-(5-morpholin-4-yl-pyridin-2-ylamino)-7-oxo-7,8-dihydro-pyrido[2,3-d] pyrimidine-6-carbonitrile]
water solubility of salts [9]: enhanced water solubility

SMILES: CC(=O)c1c(C)c2cnc(Nc3ccc(N4CCNCC4)cn3)nc2n(C2CCCC2)c1=O [PD-0332991, Palbociclib, reference compound]
sub-G1 population (apoptosis) [5]: absent
IC50 [11]: 15 nM
PARP cleavage (~89 kDa cleaved polypeptide) [8]: not observed

SMILES: N#Cc1cc2cnc(Nc3ccc(N4CCOCC4)cc3)nc2n(C2CCCC2)c1=O [7t, 8-Cyclopentyl-2-(4-morpholin-4-yl-phenylamino)-7-oxo-7,8-dihydro-pyrido[2,3-d]pyrimidine-6-carbonitrile]
water solubility of salts [9]: enhanced water solubility

Second part, the compound after the results:

water solubility of salts [9]: enhanced water solubility
SMILES: CN1CCN(c2ccc(Nc3ncc4cc(C#N)c(=O)n(C5CCCC5)c4n3)nc2)CC1 [7v, 8-Cyclopentyl-2-[5-(4-methyl-piperazin-1-yl)-pyridin-2-ylamino]-7-oxo-7,8-dihydro-pyrido[2,3-d]pyrimidine-6-carbonitrile]

water solubility of salts [9]: enhanced water solubility
SMILES: N#Cc1cc2cnc(N3CCN(c4ccc(C(F)(F)F)cn4)CC3)nc2n(C2CCCC2)c1=O [7w, 8-Cyclopentyl-7-oxo-2-[4-(5-trifluoromethyl-pyridin-2-yl)-piperazin-1-yl]-7,8-dihydro-pyrido[2,3-d]pyrimidine-6-carbonitrile]
